Values joined by “and” are separate entries in the source; they are usually repeats but may differ in a detail not shown here. Equal values may be shown once.
Assays:
[1] = test system: P. falciparum PfPKGT618Q/R484A-3xHA transgenic line; experiment: Growth assay in presence of compound 2, R484A line; type: cell-based, Plasmodium falciparum; details: 1 μM; duration of the experiment 7 days
Experimental: (§1) P. falciparum lines 3D7/attB [22], 3D7/PfPKGT618Q [6], and 3D7/PfPKG-HA [35] were cultured according to standard procedures in human A+ erythrocytes (National Blood Transfusion Service, UK) and RPMI 1640 medium supplemented with 0.5% Albumax type II (Lifetech) and 5 nM WR99210 (Jacobus Pharmaceuticals, New Jersey).
(§2) P. falciparum cultures were synchronised by repeated sorbitol lysis, then either compound 2 (1μM) or DMSO was added to late trophozoites / early schizonts and cultures harvested 16h later to count newly formed ring stage parasites. Cells were fixed in 4% formaldehyde/0.1% glutaraldehyde in PBS for 30 minutes at room temperature, stained with SYBR green (Lifetech) diluted 1:10000 in PBS for 30 minutes, washed with PBS and analysed on a FACSCalibur cell analyser (Becton Dickinson). FACS data were analysed using FlowJo software. For growth assays, starting parasitaemia was 0.2% ring stages and cultured in presence or absence of compound 2 (1 μM). Samples were taken every 48h and fixed, stained, and analyzed as described above.

PfPKG T618Q mutant = test system: PfPKG T618Q mutant; set-up: method as in PMID 18532880, PMID 19915077, PMID 23675297, PMID 24594931; details: T618Q gatekeeper substitution; cited from earlier work
[2] = test system: P. falciparum transgenic lines with the capping triad mutations; experiment: Schizont accumulation assay, capping triad mutant lines; type: cell-based, Plasmodium falciparum; details: 1 μM; Giemsa-stained blood films
Experimental: as §2, with “Cells were fixed in 4% formaldehyde/0.1% glutaraldehyde in PBS for 30 minutes at room temperature, stained with SYBR green (Lifetech) diluted 1:10000 in PBS for 30 minutes, washed with PBS and analysed on a FACSCalibur cell analyser (Becton Dickinson).” left out

[3] = test system: P. falciparum PfPKGT618Q/R484A/Q532A/D533A-3xHA transgenic line; experiment: Growth assay in presence of compound 2, triple mutant line; type: cell-based, Plasmodium falciparum; details: 1 μM; duration of the experiment 7 days
Experimental: as §1, §2

[4] = test system: P. falciparum PfPKGT618Q replacement line and PfPKGT618Q-3xHA control line; experiment: Schizont accumulation assay, T618Q lines; type: cell-based, Plasmodium falciparum; details: 1 μM; Giemsa-stained blood films
[5] = test system: P. falciparum PfPKGT618Q-3xHA control line; experiment: Growth assay in presence of compound 2, T618Q-3xHA control line; type: cell-based, Plasmodium falciparum; details: 1 μM; duration of the experiment 7 days
Experimental: as §1, §2

PfPKG (1-853) D533A = target: T1, PfPKG (1-853) D533A (Plasmodium falciparum, UniProt Q8I719, D533A); type: biochemical
T1 construct: full-length PfPKG (residues 1–853); His-tag (pQTEV, TEV site) (N, cleaved yes); made in house; host or cells: E. coli TP2000 (delta-cya)
Experimental: (§3) Kinase activity was determined using a microfluidic mobility-shift assay on a Caliper DeskTop Profiler (Caliper Life Sciences, PerkinElmer). […] Reaction mixtures without cyclic nucleotide were used as controls. For electrophoretic separation of substrate and product, a ProfilerPro LabChip (4-sipper mode; Caliper Life Sciences, PerkinElmer) was used under the following conditions: downstream voltage-500 V, upstream voltage-1,900 V with a screening pressure of-1.3 psi.

PfPKG (1-853) Wild Type = target: T2, PfPKG (1-853) Wild Type (Plasmodium falciparum, UniProt Q8I719); type: biochemical
T2 construct: full-length PfPKG (residues 1–853); His-tag (pQTEV, TEV site) (N, cleaved yes); made in house; host or cells: E. coli TP2000 (delta-cya)
Experimental: as §3

[6] = target: T3, PfPKG (1-853) R484A/Q532A/D533A (Plasmodium falciparum, UniProt Q8I719, D533A/Q532A/R484A); type: biochemical; details: triple mutant versus wild type
T3 construct: full-length PfPKG (residues 1–853); His-tag (pQTEV, TEV site) (N, cleaved yes); made in house; host or cells: E. coli TP2000 (delta-cya)
Experimental: as §3

[7] = target: T4, PfPKG PfCNB-B (residues 158–294) (Plasmodium falciparum, UniProt Q8I719); experiment: Competition FP assay, isolated PfCNB-B domain; type: binding; details: competition with 8-Fluo-cGMP, read-out: EC50 ± SEM (n) competition measurements
T4 construct: 158–294 for CNB-B; His-tag (pQTEV, TEV site) (N, cleaved yes); made in house; host or cells: E. coli TP2000 (delta-cya)
Experimental: (§4) Measurements were performed in 150 mM NaCl, 20 mM MOPS plus 0.005% (w/v) CHAPS pH 7.0 using the Fusion a-FP microtiter plate reader at room temperature in a 384 well microtiterplate (Perkin Elmer, Optiplate, black). […] The KD values were calculated from sigmoidal dose-response curves.
(§5) For competition FP experiments, the protein concentration and the concentration of 8-Fluo-cGMP were fixed to give a polarization signal that was 50% of the maximum value obtained from direct FP measurements. […] FP signals were detected as indicated above. […] The EC50 values were calculated from sigmoidal dose-response curves.

human PKG Iβ CNB-B = test system: human PKG Iβ CNB-B; set-up: method as in PMID 24239458; details: cited from earlier work
[8] = target: T5, PfCNB-C (residues 275–428) (Plasmodium falciparum, UniProt Q8I719); experiment: FP binding measurements, isolated PfCNB-C domain
T5 construct: 275–428 for CNB-C; His-tag (pQTEV, TEV site) (N, cleaved yes); made in house; host or cells: E. coli TP2000 (delta-cya)
Excerpt: A manually designed construct consisting of PfPKG amino acids 1–853 with codons optimized for expression in E.coli was synthesized at Life Technologies. All PfPKG constructs were ligated into the His-tagged bacterial expression vector, pQTEV [28]. In designing the expression constructs of each CNB, we used the sequence of the cGMP selective CNB-B that we recently reported. The domain boundaries for the individual constructs are: residues 1–173 for CNB-A, 158–294 for CNB-B, 275–428 for CNB-C and 401–542 for CNB-D. All PfPKG proteins were expressed in TP2000 E. coli. The cells were grown at 37 °C to an OD600nm of 0.6, then induced with 0.5 mM IPTG, and grown for an additional 10 hours at 25 °C. Cells were harvested by centrifugation, then resuspended in 50 mM potassium phosphate (pH 7.5), 500 mM NaCl and 1 mM β-mercaptoethanol, and lysed using a cell disruptor (Constant Systems).
The direct fluorescence polarization (FP) assay was performed following the procedure from Moll et al. Measurements were performed in 150 mM NaCl, 20 mM MOPS plus 0.005% (w/v) CHAPS pH 7.0 using the Fusion a-FP microtiter plate reader at room temperature in a 384 well microtiterplate (Perkin Elmer, Optiplate, black). The protein concentration was varied while the concentration of 8-Fluo-cAMP/8-Fluo-cGMP (Biolog Life Science Institute (Bremen, Germany)) was fixed at 1–5 nM. […] The KD values were calculated from sigmoidal dose-response curves.
For competition FP experiments, the protein concentration and the concentration of 8-Fluo-cGMP were fixed to give a polarization signal that was 50% of the maximum value obtained from direct FP measurements. […] FP signals were detected as indicated above. Data were analyzed with GraphPad Prism 5.03 by plotting the polarization signal in mPol against the logarithm of the cyclic nucleotide concentration. The EC50 values were calculated from sigmoidal dose-response curves.

PfCNB-C = test system: PfCNB-C; set-up: method as in PMID 12817987; details: cited from earlier work
[9] = target: T6, PfPKG full regulatory domain (1–542) Q532A (Plasmodium falciparum, UniProt Q8I719, Q532A); type: binding; details: read-out: EC50 ± SEM (n) competition experiments
T6 construct: PfPKG full regulatory domain (1–542); His-tag (pQTEV, TEV site) (N, cleaved yes); made in house; host or cells: E. coli TP2000 (delta-cya)
Experimental: as §4, §5

[10] = target: T7, PfPKG full regulatory domain (1–542) D533A (Plasmodium falciparum, UniProt Q8I719, D533A); type: binding; details: read-out: EC50 ± SEM (n) competition experiments
T7 construct: PfPKG full regulatory domain (1–542); His-tag (pQTEV, TEV site) (N, cleaved yes); made in house; host or cells: E. coli TP2000 (delta-cya)
Experimental: as §4, §5

[11] = target: T8, PfPKG CNB-D (401–542) R484A (Plasmodium falciparum, UniProt Q8I719, R484A); type: binding; details: PfCNB-D R484A; read-out: EC50 ± SEM (n) competition experiments
T8 construct: 401–542 for CNB-D; His-tag (pQTEV, TEV site) (N, cleaved yes); made in house; host or cells: E. coli TP2000 (delta-cya)
Experimental: as §4, §5

[12] = target: T9, PfPKG full regulatory domain (1–542) R484A (Plasmodium falciparum, UniProt Q8I719, R484A); type: binding; details: read-out: EC50 ± SEM (n) competition experiments
T9 construct: PfPKG full regulatory domain (1–542); His-tag (pQTEV, TEV site) (N, cleaved yes); made in house; host or cells: E. coli TP2000 (delta-cya)
Experimental: as §4, §5

[13] = target: T10, PfPKG CNB-D (401–542) R484A/Q532A/D533A (Plasmodium falciparum, UniProt Q8I719, D533A/Q532A/R484A); type: binding; details: PfCNB-D R484A/Q532A/D533A; read-out: EC50 ± SEM (n) competition experiments
T10 construct: 401–542 for CNB-D; His-tag (pQTEV, TEV site) (N, cleaved yes); made in house; host or cells: E. coli TP2000 (delta-cya)
Experimental: as §4, §5

[14] = target: T11, PfPKG full regulatory domain (1–542) Wild type (Plasmodium falciparum, UniProt Q8I719); type: binding; details: read-out: EC50 ± SEM (n) competition experiments
T11 construct: PfPKG full regulatory domain (1–542); His-tag (pQTEV, TEV site) (N, cleaved yes); made in house; host or cells: E. coli TP2000 (delta-cya)
Experimental: as §4, §5

[15] = target: T12, PfPKG CNB-D (401–542) D533A (Plasmodium falciparum, UniProt Q8I719, D533A); type: binding; details: PfCNB-D D533A; read-out: EC50 ± SEM (n) competition experiments
T12 construct: 401–542 for CNB-D; His-tag (pQTEV, TEV site) (N, cleaved yes); made in house; host or cells: E. coli TP2000 (delta-cya)
Experimental: as §4, §5

[16] = target: T13, PfPKG CNB-D (401–542) Q532A (Plasmodium falciparum, UniProt Q8I719, Q532A); type: binding; details: PfCNB-D Q532A; read-out: EC50 ± SEM (n) competition experiments
T13 construct: 401–542 for CNB-D; His-tag (pQTEV, TEV site) (N, cleaved yes); made in house; host or cells: E. coli TP2000 (delta-cya)
Experimental: as §4, §5

[17] = target: T14, PfPKG CNB-D (401–542) Wild type (Plasmodium falciparum, UniProt Q8I719); type: binding
T14 construct: 401–542 for CNB-D; His-tag (pQTEV, TEV site) (N, cleaved yes); made in house; host or cells: E. coli TP2000 (delta-cya)
Experimental: as §4, §5

[18] = target: T15, PfPKG PfCNB-A (residues 1–173) (Plasmodium falciparum, UniProt Q8I719); type: binding; details: competition with 8-Fluo-cGMP, read-out: EC50 ± SEM (n) competition measurements
T15 construct: residues 1–173 for CNB-A; His-tag (pQTEV, TEV site) (N, cleaved yes); made in house; host or cells: E. coli TP2000 (delta-cya)
Experimental: as §4, §5

[19] = target: T16, PfPKG full regulatory domain (1–542) R484A/Q532A/D533A (Plasmodium falciparum, UniProt Q8I719, D533A/Q532A/R484A); type: binding; details: read-out: EC50 ± SEM (n) competition experiments
T16 construct: PfPKG full regulatory domain (1–542); His-tag (pQTEV, TEV site) (N, cleaved yes); made in house; host or cells: E. coli TP2000 (delta-cya)
Experimental: as §4, §5

[20] = test system: PfPKG with disabled PfCNB-D; set-up: method as in PMID 12817987; details: disabling PfCNB-D by mutation of a putative cGMP-binding residue; cited from earlier work

T14 sequence (Q8I719 401-542): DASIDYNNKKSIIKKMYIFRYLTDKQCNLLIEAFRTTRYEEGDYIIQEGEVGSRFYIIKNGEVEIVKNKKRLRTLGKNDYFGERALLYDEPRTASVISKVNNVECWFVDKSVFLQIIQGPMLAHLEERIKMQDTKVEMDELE
T10 sequence (Q8I719 401-542 R484A/Q532A/D533A): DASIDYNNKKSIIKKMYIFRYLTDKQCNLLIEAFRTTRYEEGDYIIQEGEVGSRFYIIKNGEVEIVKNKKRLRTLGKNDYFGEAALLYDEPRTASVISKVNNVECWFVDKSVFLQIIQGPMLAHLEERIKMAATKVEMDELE
T8 sequence (Q8I719 401-542 R484A): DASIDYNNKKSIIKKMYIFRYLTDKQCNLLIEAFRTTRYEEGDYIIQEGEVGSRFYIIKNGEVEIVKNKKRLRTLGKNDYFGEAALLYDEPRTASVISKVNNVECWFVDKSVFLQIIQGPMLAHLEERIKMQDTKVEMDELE
T2 sequence (Q8I719 whole entry, the tested form may be a part): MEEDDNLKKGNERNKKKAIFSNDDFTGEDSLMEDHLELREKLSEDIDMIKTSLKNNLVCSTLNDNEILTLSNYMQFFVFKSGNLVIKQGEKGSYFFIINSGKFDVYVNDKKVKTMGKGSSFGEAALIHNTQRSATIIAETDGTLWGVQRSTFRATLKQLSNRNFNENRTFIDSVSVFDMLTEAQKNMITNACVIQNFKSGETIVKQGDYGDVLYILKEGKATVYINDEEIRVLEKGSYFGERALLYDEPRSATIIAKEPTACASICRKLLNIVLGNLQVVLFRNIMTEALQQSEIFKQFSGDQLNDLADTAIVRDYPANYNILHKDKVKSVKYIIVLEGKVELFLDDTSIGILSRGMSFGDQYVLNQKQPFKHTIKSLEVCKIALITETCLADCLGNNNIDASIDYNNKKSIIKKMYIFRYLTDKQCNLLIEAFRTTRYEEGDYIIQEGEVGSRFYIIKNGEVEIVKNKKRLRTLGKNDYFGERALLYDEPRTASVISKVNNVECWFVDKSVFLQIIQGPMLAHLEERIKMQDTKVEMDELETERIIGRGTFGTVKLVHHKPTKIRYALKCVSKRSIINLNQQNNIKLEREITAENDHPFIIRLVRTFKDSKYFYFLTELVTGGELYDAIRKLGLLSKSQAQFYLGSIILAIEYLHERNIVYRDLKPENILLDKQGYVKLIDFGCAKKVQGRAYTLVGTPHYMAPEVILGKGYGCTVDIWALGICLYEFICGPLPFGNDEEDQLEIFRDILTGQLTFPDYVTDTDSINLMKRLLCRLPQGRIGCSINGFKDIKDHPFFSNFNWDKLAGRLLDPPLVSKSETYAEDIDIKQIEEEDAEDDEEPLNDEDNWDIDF
T6 sequence (Q8I719 1-542 Q532A): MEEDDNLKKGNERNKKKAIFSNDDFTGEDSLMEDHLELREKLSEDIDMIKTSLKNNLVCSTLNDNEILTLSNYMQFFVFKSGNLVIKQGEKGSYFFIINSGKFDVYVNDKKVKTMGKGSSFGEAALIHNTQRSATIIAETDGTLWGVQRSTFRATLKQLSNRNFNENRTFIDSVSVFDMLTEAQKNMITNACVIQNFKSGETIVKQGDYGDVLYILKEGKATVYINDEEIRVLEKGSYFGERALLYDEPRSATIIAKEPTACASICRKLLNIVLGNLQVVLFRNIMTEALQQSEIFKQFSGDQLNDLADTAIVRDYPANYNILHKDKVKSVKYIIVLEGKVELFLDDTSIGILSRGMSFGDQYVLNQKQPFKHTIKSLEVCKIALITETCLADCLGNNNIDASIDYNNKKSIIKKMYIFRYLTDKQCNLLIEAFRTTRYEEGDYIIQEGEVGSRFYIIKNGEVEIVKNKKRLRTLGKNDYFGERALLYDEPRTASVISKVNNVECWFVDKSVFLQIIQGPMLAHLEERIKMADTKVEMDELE
T16 sequence (Q8I719 1-542 R484A/Q532A/D533A): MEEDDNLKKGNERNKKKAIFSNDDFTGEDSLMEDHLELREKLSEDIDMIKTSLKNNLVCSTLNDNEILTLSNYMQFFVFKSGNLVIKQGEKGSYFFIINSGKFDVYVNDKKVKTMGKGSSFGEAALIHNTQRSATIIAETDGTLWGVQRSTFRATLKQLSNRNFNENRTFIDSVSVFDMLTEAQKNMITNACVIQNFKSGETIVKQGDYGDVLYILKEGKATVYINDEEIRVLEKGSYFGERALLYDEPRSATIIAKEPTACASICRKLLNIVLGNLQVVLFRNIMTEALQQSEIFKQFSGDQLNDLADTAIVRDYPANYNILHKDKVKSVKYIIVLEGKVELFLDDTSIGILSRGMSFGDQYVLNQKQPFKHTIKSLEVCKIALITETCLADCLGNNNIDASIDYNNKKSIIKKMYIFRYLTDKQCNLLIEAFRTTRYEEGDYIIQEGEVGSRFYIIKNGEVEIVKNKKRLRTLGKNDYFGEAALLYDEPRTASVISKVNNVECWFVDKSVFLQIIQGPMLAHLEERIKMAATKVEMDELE
T11 sequence (Q8I719 1-542): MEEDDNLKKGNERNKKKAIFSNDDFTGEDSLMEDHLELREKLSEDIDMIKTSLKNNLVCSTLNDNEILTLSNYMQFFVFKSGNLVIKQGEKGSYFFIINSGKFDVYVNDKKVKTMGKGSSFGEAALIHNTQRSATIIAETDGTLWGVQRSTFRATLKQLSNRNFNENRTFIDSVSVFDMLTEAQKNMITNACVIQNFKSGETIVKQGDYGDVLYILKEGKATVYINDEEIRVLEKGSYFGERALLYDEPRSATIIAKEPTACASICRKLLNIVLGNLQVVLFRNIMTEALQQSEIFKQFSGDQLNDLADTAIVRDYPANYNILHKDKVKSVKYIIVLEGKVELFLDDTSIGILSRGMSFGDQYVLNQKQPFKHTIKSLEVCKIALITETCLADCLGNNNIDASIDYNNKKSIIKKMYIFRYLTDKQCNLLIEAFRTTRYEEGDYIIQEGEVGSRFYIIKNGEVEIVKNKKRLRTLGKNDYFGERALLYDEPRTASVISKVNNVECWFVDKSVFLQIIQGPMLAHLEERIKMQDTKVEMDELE
T13 sequence (Q8I719 401-542 Q532A): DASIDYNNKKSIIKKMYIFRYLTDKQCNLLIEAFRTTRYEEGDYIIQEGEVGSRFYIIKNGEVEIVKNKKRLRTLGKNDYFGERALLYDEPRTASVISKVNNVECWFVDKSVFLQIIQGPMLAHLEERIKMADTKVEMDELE
T1 sequence (Q8I719 whole entry D533A, the tested form may be a part): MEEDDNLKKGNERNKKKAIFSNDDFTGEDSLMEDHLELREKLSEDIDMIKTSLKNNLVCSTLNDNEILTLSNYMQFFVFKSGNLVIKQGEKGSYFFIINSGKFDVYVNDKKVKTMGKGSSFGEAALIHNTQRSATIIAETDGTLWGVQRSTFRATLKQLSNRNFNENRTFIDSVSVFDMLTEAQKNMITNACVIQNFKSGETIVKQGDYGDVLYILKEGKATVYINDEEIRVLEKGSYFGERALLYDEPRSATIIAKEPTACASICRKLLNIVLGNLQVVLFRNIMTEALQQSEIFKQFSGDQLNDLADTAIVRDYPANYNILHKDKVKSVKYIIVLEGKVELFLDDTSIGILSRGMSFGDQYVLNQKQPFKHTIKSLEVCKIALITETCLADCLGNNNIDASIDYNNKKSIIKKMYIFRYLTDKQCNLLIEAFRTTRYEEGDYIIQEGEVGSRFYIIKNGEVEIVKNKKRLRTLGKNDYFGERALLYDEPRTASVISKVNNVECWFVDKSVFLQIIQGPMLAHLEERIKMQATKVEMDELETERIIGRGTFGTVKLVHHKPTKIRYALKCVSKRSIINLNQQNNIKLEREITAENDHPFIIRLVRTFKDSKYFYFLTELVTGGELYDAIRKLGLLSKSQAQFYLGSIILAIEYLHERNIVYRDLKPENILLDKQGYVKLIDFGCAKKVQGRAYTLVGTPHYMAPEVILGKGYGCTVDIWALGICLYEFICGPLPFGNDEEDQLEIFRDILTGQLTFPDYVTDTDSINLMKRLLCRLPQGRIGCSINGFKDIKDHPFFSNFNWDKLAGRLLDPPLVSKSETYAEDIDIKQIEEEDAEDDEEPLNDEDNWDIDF
T7 sequence (Q8I719 1-542 D533A): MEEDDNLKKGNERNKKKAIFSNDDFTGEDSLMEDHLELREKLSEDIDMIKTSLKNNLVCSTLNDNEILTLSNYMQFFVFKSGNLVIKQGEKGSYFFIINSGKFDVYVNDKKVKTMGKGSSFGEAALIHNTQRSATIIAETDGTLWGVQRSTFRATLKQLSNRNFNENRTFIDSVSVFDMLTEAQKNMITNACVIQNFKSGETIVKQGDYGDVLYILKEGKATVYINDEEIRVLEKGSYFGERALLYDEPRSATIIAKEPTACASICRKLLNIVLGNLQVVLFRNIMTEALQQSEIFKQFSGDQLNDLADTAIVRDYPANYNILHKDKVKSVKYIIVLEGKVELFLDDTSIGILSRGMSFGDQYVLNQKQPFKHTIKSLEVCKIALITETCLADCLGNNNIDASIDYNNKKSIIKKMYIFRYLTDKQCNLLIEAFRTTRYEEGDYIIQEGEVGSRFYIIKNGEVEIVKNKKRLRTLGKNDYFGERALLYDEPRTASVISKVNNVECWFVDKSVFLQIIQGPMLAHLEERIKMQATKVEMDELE
T12 sequence (Q8I719 401-542 D533A): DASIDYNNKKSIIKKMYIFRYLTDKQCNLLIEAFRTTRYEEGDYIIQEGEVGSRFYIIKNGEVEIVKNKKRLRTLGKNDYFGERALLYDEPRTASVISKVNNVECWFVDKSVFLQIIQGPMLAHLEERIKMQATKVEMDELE
T4 sequence (Q8I719 158-294): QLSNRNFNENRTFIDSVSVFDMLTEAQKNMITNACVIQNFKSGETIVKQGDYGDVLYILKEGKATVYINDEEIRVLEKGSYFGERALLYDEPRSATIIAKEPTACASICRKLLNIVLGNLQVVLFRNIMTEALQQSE
T5 sequence (Q8I719 275-428): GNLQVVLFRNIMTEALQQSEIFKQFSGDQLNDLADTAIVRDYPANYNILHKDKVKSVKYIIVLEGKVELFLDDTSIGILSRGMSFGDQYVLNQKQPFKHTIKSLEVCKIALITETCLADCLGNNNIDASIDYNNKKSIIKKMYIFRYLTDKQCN

**Q.** Which results are given for `CN(C)Cc1ccn2c(-c3ccnc(N)n3)c(-c3ccc(F)cc3)nc2c1` [compound 2]?
**A.** parasite growth in the presence of compound [1]: did not proliferate; sensitivity of the kinase to the inhibitor (PfPKG T618Q mutant): no longer sensitive; progression from schizont to ring stage parasites [2]: did not progress to ring stage parasites; parasite growth in the presence of compound [3]: did not proliferate; ring stage parasites observed [4]: high levels of ring stage parasites; parasite growth in the presence of compound [5]: able to grow at a similar rate to the allelic replacement control line

**Q.** Which results are given for `Nc1nc2c(ncn2[C@@H]2O[C@@H]3COP(=O)(O)O[C@H]3[C@H]2O)c(=O)[nH]1` [cGMP, Cyclic GMP]?
**A.** Ka ± SEM (n), activation constant (PfPKG (1-853) D533A): 330 nM; Ka ± SEM (n), activation constant (PfPKG (1-853) Wild Type): 66 nM; increase of Ka:cGMP on mutating all three residues [6]: over 28 fold; EC50 [7]: 1200 nM; EC50 (human PKG Iβ CNB-B): 215 nM; cGMP binding [8]: little to no binding; cGMP binding (PfCNB-C): could not be detected; EC50 [9]: 2200 ± 100 nM; EC50 [10]: 610 ± 50 nM; EC50 [11]: 3200 ± 400 nM; EC50 [12]: 960 ± 20 nM; EC50 [13]: 7000 nM and 7200 nM; EC50 [14]: 79 ± 4 nM; EC50 [15]: 760 ± 40 nM; EC50 [16]: 2400 ± 100 nM; EC50 ([17]; PfCNB-D wild type, competition with 8-Fluo-cGMP, read-out: EC50 ± SEM (n) competition experiments): 38 nM and 37.8 nM; selectivity for cGMP ([17]; PfCNB-D, cGMP over cAMP): over 190 fold; EC50 [18]: 1000 nM; EC50 [19]: 1400 ± 100 nM; increase in the activation constant for cGMP (Ka:cGMP) [20]: 10 fold

— article PMC4412288, “Crystal Structures of the Carboxyl cGMP Binding Domain of the Plasmodium falciparum cGMP-dependent Protein Kinase Reveal a Novel Capping Triad Crucial for Merozoite Egress” (PLoS Pathogens, 2015)
